Legend:
Assay in all cases: relative viability (nuclei count vs DMSO), 5 days (fraction); higher = more cells survive
Ibrutinib + Olaparib = compound: C=CC(=O)N1CCC[C@@H](n2nc(-c3ccc(Oc4ccccc4)cc3)c3c(N)ncnc32)C1 [Ibrutinib] + O=C(c1cc(Cc2n[nH]c(=O)c3ccccc23)ccc1F)N1CCN(C(=O)C2CC2)CC1 [Olaparib] (partner 8 µM)
Summary of the method: (§1)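 Relative viability was taken as the ratio of nuclei in treated wells to nuclei in vehicle wells. Lung cancer cell lines in 1536-well plates received compounds by pin tool one day after seeding, either one drug alone or a fixed anchor-drug dose plus five library-drug doses (not always all listed) in √10 steps. Nuclei were counted on 4× images after 5 days of treatment, and values are medians of duplicate plates.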

BMX-IN-1 + Dasatinib = compound: C=CC(=O)Nc1cc(-n2c(=O)ccc3cnc4ccc(-c5ccc(NS(C)(=O)=O)cc5)cc4c32)ccc1C [BMX-IN-1] + Cc1nc(Nc2ncc(C(=O)Nc3c(C)cccc3Cl)s2)cc(N2CCN(CCO)CC2)n1 [Dasatinib] (partner 0.075 µM)
Summary of the method: as §1

PAC-1 + Navitoclax = compound: C=CCc1cccc(/C=N/NC(=O)CN2CCN(Cc3ccccc3)CC2)c1O [PAC-1] + CC1(C)CCC(c2ccc(Cl)cc2)=C(CN2CCN(c3ccc(C(=O)NS(=O)(=O)c4ccc(N[C@H](CCN5CCOCC5)CSc5ccccc5)c(S(=O)(=O)C(F)(F)F)c4)cc3)CC2)C1 [Navitoclax] (partner 0.5 µM)
Summary of the method: as §1

PAC-1 + AZD7762 = compound: C=CCc1cccc(/C=N/NC(=O)CN2CCN(Cc3ccccc3)CC2)c1O [PAC-1] + NC(=O)Nc1cc(-c2cccc(F)c2)sc1C(=O)N[C@H]1CCCNC1 [AZD7762] (partner 0.2 µM)
Summary of the method: as §1

Cell Line	relative viability (Ibrutinib + Olaparib; first compound 0.005 µM)	relative viability (Ibrutinib + Olaparib; first compound 0.01581 µM)	relative viability (Ibrutinib + Olaparib; first compound 0.05 µM)	relative viability (Ibrutinib + Olaparib; first compound 0.1581 µM)	relative viability (Ibrutinib + Olaparib; first compound 0.5 µM)	relative viability (BMX-IN-1 + Dasatinib; first compound 0.02 µM)	relative viability (BMX-IN-1 + Dasatinib; first compound 0.2 µM)	relative viability (BMX-IN-1 + Dasatinib; first compound 0.6325 µM)	relative viability (BMX-IN-1 + Dasatinib; first compound 2 µM)	relative viability (PAC-1 + Navitoclax; first compound 0.02 µM)	relative viability (PAC-1 + Navitoclax; first compound 0.06325 µM)	relative viability (PAC-1 + Navitoclax; first compound 0.2 µM)	relative viability (PAC-1 + Navitoclax; first compound 2 µM)	relative viability (PAC-1 + AZD7762; first compound 0.02 µM)	relative viability (PAC-1 + AZD7762; first compound 0.06325 µM)	relative viability (PAC-1 + AZD7762; first compound 0.2 µM)	relative viability (PAC-1 + AZD7762; first compound 2 µM)
LXF-289	1.16	0.994	1.01	1.03	1.02	0.197	0.204	0.247	0.266	0.944	0.948	0.932	0.927	1.09	1.11	0.987	1.08
HARA	0.96	0.712	0.778	0.763	0.384	0.258	0.305	0.342	0.244	1.15	1.11	1.14	1.15	0.229	0.304	0.0838	0.457
NCI-H1975	0.886	0.775	0.688	0.802	0.482	0.362	0.382	0.457	0.38	1.12	1.2	1.12	1.06	0.669	0.666	0.755	0.698
NCI-H23	0.335	0.355	0.383	0.41	0.311	0.839	0.994	0.855	0.722	0.569	0.891	0.793	0.881	0.242	0.349	0.244	0.314
CAL-12T	0.665	0.677	0.658	0.818	0.506	0.353	0.444	0.528	0.366	1.43	1.21	1.31	1.26	0.579	0.621	0.626	0.6
LCLC-97TM1	0.383	0.334	0.517	0.498	0.389	0.927	0.893	1	0.943		0.395	0.307	0.62	0.211	0.267	0.23	0.345
NCI-H1944	0.411	0.404	0.413	0.387	0.359	0.203	0.188	0.222	0.206	1.03	1.04	0.954	1.04	0.428	0.542	0.502	0.516
NCI-H1915	0.283	0.256	0.257	0.281	0.241	0.351	0.338	0.411	0.302	0.449	0.794	0.751	0.767	0.724	0.681	0.546	0.695
